Test results reported in patent publication US20260374817A1, “COMPOSITIONS COMPRISING TREM-1 INHIBITORS AND USES THEREOF” (INOTREM, priority 2023, published 2026).
Entries after “also recorded” stand apart in the source; their conditions may differ.

Experiments:
TREM-1 pathway = assay: ROS production by LPS-stimulated human primary neutrophils (DCFDA, flow cytometry, MFI); assay type: cell-based; settings: for decrease of LPS-induced ROS production: 100 ng/mL LPS, 2 hours, 37 °C, LR12 or LR12-dimer 10 and 50 μg/mL; for TREM-1 inhibiting property / biological activity: preclinical in vitro pharmacology model
Experimental: FIG. 1 is a graph showing the results from flow cytometric quantification (DCFDA reduction) of neutrophils ROS production after 2 hours stimulation with LPS, LPS+10 μg/mL LR12, LPS+50 μg/mL LR12, LPS+10 μg/mL LR12-dimer (dimer), LPS+50 μg/mL LR12-dimer (dimer). […]; **p<0.01 (T test).
Neutrophils produce reactive oxygen species (ROS) in presence of LPS (lipopolysaccharides) following activation of the TREM-1 pathway and are thus used in the present example in order to assess TREM-1 activation and the biological activity of the LR12 dimer on the TREM-1 pathway. ROS production induced by TREM-1 activation and its modulation by LR12 can be quantified by flow cytometry. Any decrease in ROS production by LR12 (LPS+LR12 conditions) translates into a decrease in mean fluorescence intensity (MFI) as compared to the ROS production observed following the TREM-1 activation in presence of LPS (LPS condition).
Primary human neutrophils were isolated from the peripheral blood of healthy donors by immunomagnetic negative cell sorting with EasySep™ Human Monocyte/Neutrophil Isolation Kits (StemCell, Canada) following the manufacturer's instructions. Purity was assessed by flow cytometry. Cells were suspended in RPMI 1640 medium containing GlutaMAX and supplemented with 10% FCS, 25 mM HEPES, 100 U/ml penicillin and streptomycin before stimulation. Human primary neutrophils were incubated in resting conditions (also referred to as control conditions or ctrl 2), or with 100 ng/mL LPS from E. coli serotype 0127: B8 (Sigma-Aldrich), with or without LR12 or LR12-dimer (dimer) at the indicated concentrations.
Upon cleavage of the acetate groups by intracellular esterases and oxidation, the nonfluorescent DCFDA is converted to the highly fluorescent 2′,7′-dichlorofluorescein (DCF). 2.5×10^5 isolated human neutrophils were incubated 2 hours at 37 °C-5% CO2 with 5 μM of DCFDA, with or without 100 ng/mL LPS, and with or without LR12 or LR12-dimer (dimer) at the indicated concentrations. Data were acquired using flow cytometry. Results are expressed as mean fluorescence intensity (MFI).

[1] = Solubility of LR12 in formulations / screening of solubility aids; assay type: physicochemical
Experimental: Briefly, to reduce the formation of disulfide bridges, the pH during the formulation process was reduced to below 6.0. However, LR12 contains 4 acidic, negatively charged amino acids, namely glutamate (Glu) and aspartate (Asp) and no basic amino acids.
To solve this problem, solubility aids were screened at pH 5.5 and 6.5.
The purified substance of LR12 peptide (of example 2) is formulated using the following excipients: 50 mM sodium citrate pH 5.5; 50 mM NaCl.
The purified substance of LR12 peptide (of example 2) is formulated using the following excipients: 50 mM sodium phosphate pH 6.5; 50 mM NaCl.
The purified substance of LR12 peptide (of example 2) is formulated using the following excipients: 50 mM sodium citrate pH 5.5; 200 mM mannitol.
The purified substance of LR12 peptide (of example 2) is formulated using the following excipients: 50 mM sodium citrate pH 5.5; 150 mM betaine.
The purified substance of LR12 peptide (of example 2) is formulated using the following excipients: 5 0 mM sodium citrate pH 5.5; 50 mM lysine; 50 mM NaCl.
The purified substance of LR12 peptide (of example 2) is formulated using the following excipients: 50 mM sodium citrate pH 5.5; 50 mM arginine.
The purified substance of LR12 peptide (of example 2) is formulated using the following excipients: 25 mM sodium citrate pH 5.5; 225 mM arginine; 65 mM HCl.
Formulations using incremental concentrations of the purified substance of LR12 peptide (of example 2) and incremental concentrations of the following excipients: Arginine 90 to 420 mM, using only HCl for pH adjustment to 5.5.

TREM-1 signaling = settings: Derive et al., 2012; cited from earlier work
[2] = test system: adult minipig model of induced sepsis; settings: after induction of fecal peritonitis; Derive et al., 2013; cited from earlier work

| Structure (SMILES) | decrease of LPS-induced ROS production (TREM-1 pathway) | TREM-1 inhibiting property / biological activity (TREM-1 pathway) | TREM-1 inhibiting property / biological activity (TREM-1 pathway; listed as LR12-dimer) | solubility below pH 5.0 ([1]; below pH 5.0) | solubility with solubility aids (no improvement) ([1]; pH 5.5 and 6.5, Tween 20, mannitol, sucrose, trehalose, betaine, urea, glutathione, ammonium acetate, citrate) | solubility ([1]; screened at pH 5.5 and 6.5, only by adding lysine or arginine or histidine, read-out: solubility reached with positively charged solubility enhancing agents) | anti-inflammatory properties (TREM-1 signaling) | cardiovascular failure [2] | survival [2] |
| --- | --- | --- | --- | --- | --- | --- | --- | --- | --- |
| CSCC[C@H](NC(=O)[C@H](CSSC[C@H](NC(=O)CNC(=O)[C@H](Cc1ccc(O)cc1)NC(=O)[C@H](CCC(=O)O)NC(=O)CNC(=O)[C@H](C)NC(=O)[C@H](CC(=O)O)NC(=O)[C@H](CCC(=O)O)NC(=O)[C@H](CCC(=O)O)NC(=O)[C@H](CCC(N)=O)NC(=O)[C@@H](N)CC(C)C)C(=O)N[C@@H](CCSC)C(N)=O)NC(=O)CNC(=O)[C@H](Cc1ccc(O)cc1)NC(=O)[C@H](CCC(=O)O)NC(=O)CNC(=O)[C@H](C)NC(=O)[C@H](CC(=O)O)NC(=O)[C@H](CCC(=O)O)NC(=O)[C@H](CCC(=O)O)NC(=O)[C@H](CCC(N)=O)NC(=O)[C@@H](N)CC(C)C)C(N)=O [LR12 dimer] | not able to decrease the production of ROS by LPS-activated neutrophils | did not display any TREM-1 inhibiting property; also recorded: inactive in a preclinical in vitro pharmacology model; also recorded: biologically inactive | not able to induce any pharmacological inhibition of TREM-1 | – | – | – | – | – | – |
| CSCC[C@H](NC(=O)[C@H](CS)NC(=O)CNC(=O)[C@H](Cc1ccc(O)cc1)NC(=O)[C@H](CCC(=O)O)NC(=O)CNC(=O)[C@H](C)NC(=O)[C@H](CC(=O)O)NC(=O)[C@H](CCC(=O)O)NC(=O)[C@H](CCC(=O)O)NC(=O)[C@H](CCC(N)=O)NC(=O)[C@@H](N)CC(C)C)C(N)=O [LR12] | able to decrease in a dose-dependent manner the LPS-induced release of ROS | – | – | barely soluble below pH 5.0 | failed to improve the solubility of LR12 | 40 mg/mL | exhibit anti-inflammatory properties by inhibiting TREM-1 signaling | reduced cardiovascular failure | improved survival |
